Patent US20230085307A1, “PYRIDAZINONE COMPOUND AND HERBICIDE” (NISSAN CHEMICAL CORPORATION, priority 2019, published 2023)

Legend:
late watergrass [1] = assay: Test Example 1: herbicidal activity, application before weed generation under submerged conditions (Table 16, symbol A); format: in vivo, late watergrass (Echinochloa oryzicola); details: amount of applied herbicide 320 g/ha
How it was run: (§1)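 Submerged Wagner pots (alluvial soil, 4 cm water) sown with weed seeds and planted with 2.5-leaf rice seedlings; emulsifiable concentrate diluted in water applied to water surface on sowing day. Held in greenhouse at 25-30 °C; injury scored 0-5 by herbicidal rate after three weeks.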

Japanese bulrush [2] = assay: Test Example 1: herbicidal activity, application before weed generation under submerged conditions (Table 16, symbol B); format: in vivo, Japanese bulrush (Schoenoplectus juncoides); details: amount of applied herbicide 320 g/ha
How it was run: as §1

oval-leafed pondweed [3] = assay: Test Example 1: herbicidal activity, application before weed generation under submerged conditions (Table 16, symbol C); format: in vivo, oval-leafed pondweed (Monochoria vaginalis); details: amount of applied herbicide 320 g/ha
How it was run: as §1

late watergrass [4] = assay: Test Example 2: herbicidal activity, application during weed generation under submerged conditions (Table 17, symbol A); format: in vivo, late watergrass (Echinochloa oryzicola); details: AAH 320 g/ha; application during weed generation, submerged conditions
How it was run: (§2)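 Effect on each weed is rated three weeks post-treatment, using the same scoring criteria as the preceding test. Plants grow from mixed-sown seed in flooded alluvial soil (4 cm water) at 25° C. to 30° C., and are treated at one to two leaves with diluted emulsion dropped onto the water.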

Japanese bulrush [5] = assay: Test Example 2: herbicidal activity, application during weed generation under submerged conditions (Table 17, symbol B); format: in vivo, Japanese bulrush (Schoenoplectus juncoides); details: AAH 320 g/ha; application during weed generation, submerged conditions
How it was run: as §2

oval-leafed pondweed [6] = assay: Test Example 2: herbicidal activity, application during weed generation under submerged conditions (Table 17, symbol C); format: in vivo, oval-leafed pondweed (Monochoria vaginalis); details: AAH 320 g/ha; application during weed generation, submerged conditions
How it was run: as §2

barnyard grass [7] = assay: Test Example 3: herbicidal effect by foliage application, Wagner pot (Table 18, symbol H); format: in vivo, barnyard grass (Echinochloa crus-galli); details: 320 g/ha
How it was run: (§3)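 Plants were sown in alluvial soil held under 0.1–0.5 cm standing water and grown 14 days in a greenhouse at 25–30 °C. An emulsifiable formulation, water-diluted to the set dose, was then sprayed onto the foliage, and effects were scored three weeks later using previously defined criteria.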

Chinese sprangletop = assay: Test Example 3: herbicidal effect by foliage application, Wagner pot (Table 18, symbol D); format: in vivo, chinese sprangletop (Leptochloa chinensis); details: 320 g/ha
How it was run: as §3

rice flat sedge = assay: Test Example 3: herbicidal effect by foliage application, Wagner pot (Table 18, symbol E); format: in vivo, rice flat sedge (Cyperus iria); details: 320 g/ha
How it was run: as §3

southern crabgrass = assay: Test Example 5: herbicidal effect by foliage application, plastic box (Table 20, symbol F); format: in vivo, southern crabgrass (Digitaria ciliaris); details: amount of applied herbicide 320 g/ha; foliage application after 14-day growth; evaluated three weeks after application
How it was run: (§4)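 Foliar spray test: emulsion formulation diluted in water to a set application rate, sprayed onto 14-day-old plants raised in diluvial soil at 25° C to 30° C under glass. Both herbicidal effect and crop effect rated visually three weeks later.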

green foxtail = assay: Test Example 5: herbicidal effect by foliage application, plastic box (Table 20, symbol G); format: in vivo, green foxtail (Setaria viridis); details: amount of applied herbicide 320 g/ha; foliage application after 14-day growth; evaluated three weeks after application
How it was run: as §4

barnyard grass [8] = assay: Test Example 5: herbicidal effect by foliage application, plastic box (Table 20, symbol H); format: in vivo, barnyard grass (Echinochloa crus-galli); details: amount of applied herbicide 320 g/ha; foliage application after 14-day growth; evaluated three weeks after application
How it was run: as §4

wild oat = assay: Test Example 5: herbicidal effect by foliage application, plastic box (Table 20, symbol I); format: in vivo, wild oat (Avena fatua); details: amount of applied herbicide 320 g/ha; foliage application after 14-day growth; evaluated three weeks after application
How it was run: as §4

blackgrass = assay: Test Example 5: herbicidal effect by foliage application, plastic box (Table 20, symbol J); format: in vivo, blackgrass (Alopecurus myosuroides); details: amount of applied herbicide 320 g/ha; foliage application after 14-day growth; evaluated three weeks after application
How it was run: as §4

Italian ryegrass = assay: Test Example 5: herbicidal effect by foliage application, plastic box (Table 20, symbol K); format: in vivo, Italian ryegrass (Lolium multiflorum); details: amount of applied herbicide 320 g/ha; foliage application after 14-day growth; evaluated three weeks after application
How it was run: as §4

windgrass = assay: Test Example 5: herbicidal effect by foliage application, plastic box (Table 20, symbol L); format: in vivo, windgrass (Apera spica-venti); details: amount of applied herbicide 320 g/ha; foliage application after 14-day growth; evaluated three weeks after application
How it was run: as §4

velvetleaf = assay: Test Example 5: herbicidal effect by foliage application, plastic box (Table 20, symbol M); format: in vivo, velvetleaf (Abutilon theophrasti); details: amount of applied herbicide 320 g/ha; foliage application after 14-day growth; evaluated three weeks after application
How it was run: as §4

redroot pigweed = assay: Test Example 5: herbicidal effect by foliage application, plastic box (Table 20, symbol N); format: in vivo, redroot pigweed (Amaranthus retroflexus); details: amount of applied herbicide 320 g/ha; foliage application after 14-day growth; evaluated three weeks after application
How it was run: as §4

lambsquarters = assay: Test Example 5: herbicidal effect by foliage application, plastic box (Table 20, symbol O); format: in vivo, lambsquarters (Chenopodium album); details: amount of applied herbicide 320 g/ha; foliage application after 14-day growth; evaluated three weeks after application
How it was run: as §4

chickweed = assay: Test Example 5: herbicidal effect by foliage application, plastic box (Table 20, symbol P); format: in vivo, common chickweed (Stellaria media); details: amount of applied herbicide 320 g/ha; foliage application after 14-day growth; evaluated three weeks after application
How it was run: as §4

persian speedwell = assay: Test Example 5: herbicidal effect by foliage application, plastic box (Table 20, symbol R); format: in vivo, Persian speedwell (Veronica persica); details: amount of applied herbicide 320 g/ha; foliage application after 14-day growth; evaluated three weeks after application
How it was run: as §4

For `CCCC(=O)Oc1c(C)nn(C)c(=O)c1-c1c(-c2ccc(C#N)cc2)sc2cc(Cl)c(Cl)cc12` [5-050], the “Herbicidal effect, A: late watergrass” value (late watergrass [1]) was 3 (Herbicidal rate of 40% or more and less than 70%), the “Herbicidal effect, B: Japanese bulrush” value (Japanese bulrush [2]) was 0 (Herbicidal rate of 5% or less (almost no effect)) and the “Herbicidal effect, C: oval-leafed pondweed” value (oval-leafed pondweed [3]) was 0 (Herbicidal rate of 5% or less (almost no effect)). For the same compound, the “herbicidal effect rating, A: late watergrass” value (late watergrass [4]) was 0 (Herbicidal rate of 5% or less (almost no effect)), the “herbicidal effect rating, B: Japanese bulrush” value (Japanese bulrush [5]) was 2 (Herbicidal rate of 20% or more and less than 40%) and the “herbicidal effect rating, C: oval-leafed pondweed” value (oval-leafed pondweed [6]) was 0 (Herbicidal rate of 5% or less (almost no effect)). The “herbicidal effect on barnyard grass (H)” value (barnyard grass [7]) was 2 (Herbicidal rate of 20% or more and less than 40%), the “herbicidal effect on Chinese sprangletop (D)” value (Chinese sprangletop) was 4 (Herbicidal rate of 70% or more and less than 90%) and the “herbicidal effect on rice flat sedge (E)” value (rice flat sedge) was 0 (Herbicidal rate of 5% or less (almost no effect)). For the same compound, the “Herbicidal effect by foliage application, F: southern crabgrass” value (southern crabgrass) was 0 (Herbicidal rate of 5% or less (almost no effect)), the “Herbicidal effect by foliage application, G: green foxtail” value (green foxtail) was 0 (Herbicidal rate of 5% or less (almost no effect)) and the “Herbicidal effect by foliage application, H: barnyard grass” value (barnyard grass [8]) was 0 (Herbicidal rate of 5% or less (almost no effect)). The “Herbicidal effect by foliage application, I: wild oat” value (wild oat) was 0 (Herbicidal rate of 5% or less (almost no effect)), the “Herbicidal effect by foliage application, J: blackgrass” value (blackgrass) was 0 (Herbicidal rate of 5% or less (almost no effect)) and the “Herbicidal effect by foliage application, K: Italian ryegrass” value (Italian ryegrass) was 0 (Herbicidal rate of 5% or less (almost no effect)). The “Herbicidal effect by foliage application, L: windgrass” value (windgrass) was 0 (Herbicidal rate of 5% or less (almost no effect)), the “Herbicidal effect by foliage application, M: velvetleaf” value (velvetleaf) was 0 (Herbicidal rate of 5% or less (almost no effect)) and the “Herbicidal effect by foliage application, N: redroot pigweed” value (redroot pigweed) was 0 (Herbicidal rate of 5% or less (almost no effect)). For the same compound, the “Herbicidal effect by foliage application, O: lambsquarters” value (lambsquarters) was 0 (Herbicidal rate of 5% or less (almost no effect)), the “Herbicidal effect by foliage application, P: chickweed” value (chickweed) was 3 (Herbicidal rate of 40% or more and less than 70%) and the “Herbicidal effect by foliage application, R: persian speedwell” value (persian speedwell) was 3 (Herbicidal rate of 40% or more and less than 70%).
